Values of other authors in US11346820B2, “HPLC-PDA method and uses thereof in phytoestrogen measurement” (The Board Of Regents, The University of Texas System, priority 2019, dated 2022).
Where two headings read alike, the source gives them in different places.

Conditions: nonrepresentative subset of adults, N=199, Valentin-Blasini, et al.

Structure (SMILES)	means recovered [ng/mL]	means recovered (units converted) [µmol/L]
Oc1ccc([C@H]2COc3cc(O)ccc3C2)cc1 (racemic) [Equol]	36	0.148
O=c1c(-c2ccc(O)cc2)coc2cc(O)cc(O)c12 [Genistein]	129	0.477
